Test results: patent US20060217305A1, “Induction of tumor cell senescence by retinoid receptor agonists and antagonists” (Ordway Research Institute, Inc., priority 2005, published 2006)

Columns and labels:
Format in all cases: cell-based, human
[1] = tested on: DR5 RARE-containing promoter in MCF-7 cells; assay: DR5-luciferase transient transfection assay (RARE-dependent transcription); details: 100 nM, 24 hrs
Procedure: The assays were carried out in triplicate. RA is all-trans retinoic acid. LGD1550 is a pan-RAR agonist. LG100815 is a pan-RAR antagonist.
To confirm the ability of LG100815 to antagonize RARE-dependent induction of transcription analysis of firefly luciferase expression from a RARE-containing artificial promoter DR5 (Stratagene, catalog number 240119) was performed. Cells were plated to the density of 3×10^5 in P60 24 hrs before transient transfection. DR5 reporter plasmid (4 μg) was mixed with the SV40-driven-Renilla luciferase control plasmid (0.04 μg) and transfected using Lipofectamine Plus (Life Technologies/Invitrogen, Carlsbad, Calif.) as described by the manufacturer. 3 hrs after transfection, cells were rinsed three times with PBS, trypsinized and replated in a 12-well plate to the density of 5×10^4 cells per well. Retinoid agonists and antagonists were added 48 hrs later, and the luciferase assay was performed after another 24 hrs.

MCF-7 cells [2] = assay: senescence-associated β-galactosidase (SA-β-gal) positive cells; details: 7-day treatment (FIG. 3 legend: 8 days); concentrations as in FIG. 2
Text: The bars represent percentages of SA-β-gal+ cells after 8 days of treatment with the indicated compounds (in triplicate). The compounds were used at the same concentrations as in FIG. 2.
(§1) To test this, we have analyzed the effects of different compounds on the growth of MCF-7 cells, as measured by the cell number after 7 days exposure to the compounds (FIG. 2) and on the fraction of cells expressing the senescence-associated β-galactosidase activity (SA-β-gal), a marker of senescence, after 7-day treatment with the compounds (FIG. 3).

MCF-7 cells [3] = assay: MCF-7 cell growth, cell number after 7 days; details: 100 nM RA, LGD1550, LGD1268, 10 μM LG100815, LG101208
Procedure: The bars represent cell number after 7 days of culture with the addition of DMSO (control), 100 nM RA, 100 nM RAR agonist LGD1550, 100 nM RXR agonist LGD1268, 10 μM RAR antagonist LG100815, and 10 μM RXR antagonist LG101208. Experiments were done in triplicate, and the results are expressed relative to the average of the control.
as §1

[4] = tested on: retinoid-inducible genes EPLIN, UBD, IGFBP3, TGFB1 and TRIM31 in MCF-7 cells (subline MCF-7 3′SS6); assay: real-time RT-PCR (QPCR) of retinoid-inducible gene expression, 2 days treatment; details: for Fold induction EPLIN / Fold induction IGFBP3 / Fold induction TGFBI / Fold induction TRIM31 / Fold induction UBD: 2 days, MCF-7
Text: The following compounds were obtained from Ligand Pharmaceuticals (San Diego, Calif.). LGD1550 is a pan-RAR agonist. LGD1268 is a pan-RXR agonist. LG100815 is a pan-RAR antagonist. LG101208 is a pan-RXR antagonist. The LG100815 compound is a specific RAR antagonist that binds to RAR, but fails to activate its Retinoic Acid Responsive Element (RARE)-dependent transcription transactivation function (see Lee et al, Mol. Cell Biol. 19: 1973-1980 (1999)). Also used was all-trans retinoic acid (RA), the most commonly used RAR agonist. To determine how these compounds affect the expression of retinoid-inducible growth inhibitory genes EPLIN, UBD, IGFBP3 and TGFB1, as well as TRIM31 gene that contains a putative RARE element in its promoter, MCF-7 cells (subline MCF-7 3′SS6) were treated with individual compounds or their combinations for 2 days, and RNA was extracted by standard procedures. In the initial assays, gene expression was analyzed by semi-quantitative reverse transcription-PCR (RT-PCR), as described in Dokmanovic et al., Cancer Biology & Therapy 1:24-27 (2002). In subsequent assays, the initial results were confirmed, expanded and quantitated by real-time RT-PCR (QPCR), using Applied BioSystems 7900HT real-time PCR instrument. β-actin was used as a normalization standard.
cDNA was prepared by reverse transcription with random primer using 4 μg total RNA. 5 μl SYBR Green PCR Master Mix (Applied Biosystems) was mixed with […] cDNA and 0.8 pmol of gene-specific primers and brought up to 10 μl with ultra pure H2O in 384-well optical plates. For amplification, reaction mixtures were heated for 2 min at 50° C. and 10 min at 95° C., followed by 40 cycles of two-step PCR consisting of 15 sec at 95° C. and 1 min at 60° C., to construct dissociation curves and verify that single PCR products were obtained. PCR products were also analyzed by gel electrophoresis to confirm that a single product of the expected size was amplified. […] The comparative CT method for relative quantitation of gene expression described by Applied Biosystems was used to determine expression levels for target genes. Experiments were carried out in triplicate for each data point. Sequence Detection Systems software version 2.1 (Applied Biosystems) and Microsoft Excel were used for data analysis.

With `CC(/C=C/C=C(\C)c1cc(C(C)(C)C)cc(C(C)(C)C)c1)=C\C(=O)O` [LGD1550] as the compound, how does the “induction of luciferase expression from DR5 RARE-containing promoter” value [1] read?
The value was “approximately 50 fold”.

And the “induction of senescent phenotype (SA-β-gal+ cells)” value (MCF-7 cells [2])?
Its value is “induced SA-β-gal to an extent similar to that of RA”.

What about the “effect on MCF-7 cell growth (cell number)” value (MCF-7 cells [3]) of the same compound?
Its value is “inhibited the cell growth”.

What about the “ratio of the fold-induction of TGFB1 relative to TRIM31” value ([4]; 100 nM) of the same compound?
The value was 0.12.

What about the “Fold induction EPLIN” value ([4]; 100 nM) of the same compound?
Its value is 4.2 ± 0.8 fold.

What about the “Fold induction IGFBP3” value ([4]; 100 nM) of the same compound?
Its value is 4.2 ± 2.0 fold.

What about the “Fold induction TGFBI” value ([4]; 100 nM) of the same compound?
The value was 5.1 ± 0.6 fold.

And the “Fold induction TRIM31” value ([4]; 100 nM)?
The value was 42.7 ± 1.3 fold.

What about the “Fold induction UBD” value ([4]; 100 nM) of the same compound?
Its value is 9.5 ± 0.2 fold.

And the “ratio of the fold-induction of TGFB1 relative to TRIM31” value ([4]; 1 μM)?
The value was 0.12.

What about the “Fold induction EPLIN” value ([4]; 1 μM) of the same compound?
The value was 3.2 ± 0.3 fold.

And the “Fold induction IGFBP3” value ([4]; 1 μM)?
The value was 3.7 ± 0.7 fold.

And the “Fold induction TGFBI” value ([4]; 1 μM)?
Its value is 3.5 ± 0.4 fold.

And the “Fold induction TRIM31” value ([4]; 1 μM)?
The value was 30.3 ± 0.7 fold.

And the “Fold induction UBD” value ([4]; 1 μM)?
Its value is 7.7 ± 1.1 fold.

And the “ratio of the fold-induction of TGFB1 relative to TRIM31” value ([4]; 10 μM)?
Its value is 0.12.

What about the “Fold induction EPLIN” value ([4]; 10 μM) of the same compound?
The value was 4.9 ± 2.5 fold.

And the “Fold induction IGFBP3” value ([4]; 10 μM)?
The value was 2.8 ± 1.6 fold.

What about the “Fold induction TGFBI” value ([4]; 10 μM) of the same compound?
The value was 5.6 ± 0.1 fold.

What about the “Fold induction TRIM31” value ([4]; 10 μM) of the same compound?
Its value is 45.0 ± 1.4 fold.

And the “Fold induction UBD” value ([4]; 10 μM)?
Its value is 7.3 ± 1.1 fold.

What about the “effect on expression of the five genes (IGFBP3, EPLIN, UBD, TGFB1, TRIM31)” value ([4]; summary of Table 2, MCF-7) of the same compound?
The value was “induced all five genes to approximately the same extent as RA”.
